Measurements as given in ChEMBL document CHEMBL3885881, “DrugMatrix”.

Organism: Rattus norvegicus
Assay: DrugMatrix - Regimen: Daily Repeat
Assay type: toxicity, organism-based, Sprague-Dawley
Design: regimen Daily Repeat, gender Male, age 6-8 weeks
Conditions: in vivo, iv, vehicle 100 % SALINE; for ABSOLUTE BASOPHIL / ABSOLUTE EOSINOPHIL / ABSOLUTE LYMPHOCYTE / ABSOLUTE MONOCYTE / ABSOLUTE SEGMENTED NEUTROPHIL / BASOPHIL / EOSINOPHIL / ERYTHROCYTE COUNT / HEMATOCRIT / HEMOGLOBIN / LEUKOCYTE COUNT / LYMPHOCYTE / MEAN CORPUSCULAR HEMOGLOBIN / MEAN CORPUSCULAR HEMOGLOBIN CONCENTRATION / MEAN CORPUSCULAR VOLUME / MONOCYTE / NEUTROPHIL / NUCLEATED RED BLOOD CELLS / PLATELET COUNT: tissue Blood; for ALANINE AMINOTRANSFERASE / ALBUMIN / ALKALINE PHOSPHATASE / ASPARTATE AMINOTRANSFERASE / BLOOD UREA NITROGEN / CARBON DIOXIDE / CHLORIDE / CHOLESTEROL / CREATINE PHOSPHOKINASE / CREATININE / GLUCOSE / LACTATE DEHYDROGENASE / LIPASE / PHOSPHORUS / POTASSIUM / SODIUM / TOTAL BILIRUBIN / TOTAL PROTEIN / URIC ACID: tissue Plasma
[1] = 23 mg/kg, 120 h, dose level High, time 5 day
[2] = […], 72 h, dose 2.3 mg/Kg, dose level Low, time 3 day
[3] = […], 120 h, dose 2.3 mg/Kg, dose level Low, time 5 day

Compound: COC(=O)C[C@](O)(CCC(C)(C)O)C(=O)O[C@@H]1C(OC)=C[C@]23CCCN2CCc2cc4c(cc2[C@H]13)OCO4 [HARRINGTONINE]
- ABSOLUTE BASOPHIL [1]: 0 CELLS/uL
- ABSOLUTE EOSINOPHIL [1]: 0 CELLS/uL
- ABSOLUTE LYMPHOCYTE [1]: 5612 CELLS/uL
- ABSOLUTE MONOCYTE [1]: 134.67 CELLS/uL
- ABSOLUTE SEGMENTED NEUTROPHIL [1]: 53.33 CELLS/uL
- BASOPHIL [1]: 0%
- EOSINOPHIL [1]: 0%
- ERYTHROCYTE COUNT [1]: 5.85 x10E6/uL
- HEMATOCRIT [1]: 36.17%
- HEMOGLOBIN [1]: 13.93 G/DL
- LEUKOCYTE COUNT [1]: 5.8 x10E3/uL
- LYMPHOCYTE [1]: 96.67%
- MEAN CORPUSCULAR HEMOGLOBIN [1]: 23.83 pg
- MEAN CORPUSCULAR HEMOGLOBIN CONCENTRATION [1]: 38.53 G/DL
- MEAN CORPUSCULAR VOLUME [1]: 61.87 fL
- MONOCYTE [1]: 2.33%
- NEUTROPHIL [1]: 1%
- NUCLEATED RED BLOOD CELLS [1]: 0 /100WBC
- PLATELET COUNT [1]: 414 x10E3/uL
- ALANINE AMINOTRANSFERASE [1]: 83 u/L
- ALBUMIN [1]: 3.47 G/DL
- ALKALINE PHOSPHATASE [1]: 214 u/L
- ASPARTATE AMINOTRANSFERASE [1]: 226.33 u/L
- BLOOD UREA NITROGEN [1]: 15.67 mg/dL
- CARBON DIOXIDE [1]: 24 mmol/L
- CHLORIDE [1]: 100.33 MEQ/L
- CHOLESTEROL [1]: 71 mg/dL
- CREATINE PHOSPHOKINASE [1]: 222 u/L
- CREATININE [1]: 0.27 mg/dL
- GLUCOSE [1]: 151.67 mg/dL
- LACTATE DEHYDROGENASE [1]: 292.33 u/L
- LIPASE [1]: 7.33 u/L
- PHOSPHORUS [1]: 9.13 mg/dL
- POTASSIUM [1]: 6.23 MEQ/L
- SODIUM [1]: 143.4 MEQ/L
- TOTAL BILIRUBIN [1]: 0.23 mg/dL
- TOTAL PROTEIN [1]: 5.73 G/DL
- URIC ACID [1]: 1.2 mg/dL
- ABSOLUTE BASOPHIL [2]: 0 CELLS/uL
- ABSOLUTE EOSINOPHIL [2]: 41.67 CELLS/uL
- ABSOLUTE LYMPHOCYTE [2]: 11224.33 CELLS/uL
- ABSOLUTE MONOCYTE [2]: 81.33 CELLS/uL
- ABSOLUTE SEGMENTED NEUTROPHIL [2]: 586 CELLS/uL
- BASOPHIL [2]: 0%
- EOSINOPHIL [2]: 0.33%
- ERYTHROCYTE COUNT [2]: 5.44 x10E6/uL
- HEMATOCRIT [2]: 34.9%
- HEMOGLOBIN [2]: 13.83 G/DL
- LEUKOCYTE COUNT [2]: 11.93 x10E3/uL
- LYMPHOCYTE [2]: 94%
- MEAN CORPUSCULAR HEMOGLOBIN [2]: 25.47 pg
- MEAN CORPUSCULAR HEMOGLOBIN CONCENTRATION [2]: 39.63 G/DL
- MEAN CORPUSCULAR VOLUME [2]: 64.17 fL
- MONOCYTE [2]: 0.67%
- NEUTROPHIL [2]: 5%
- NUCLEATED RED BLOOD CELLS [2]: 0 /100WBC
- PLATELET COUNT [2]: 1133.33 x10E3/uL
- ALANINE AMINOTRANSFERASE [2]: 48.67 u/L
- ALBUMIN [2]: 4.13 G/DL
- ALKALINE PHOSPHATASE [2]: 303.67 u/L
- ASPARTATE AMINOTRANSFERASE [2]: 64.33 u/L
- BLOOD UREA NITROGEN [2]: 15.67 mg/dL
- CARBON DIOXIDE [2]: 31.67 mmol/L
- CHLORIDE [2]: 101 MEQ/L
- CHOLESTEROL [2]: 51 mg/dL
- CREATINE PHOSPHOKINASE [2]: 184 u/L
- CREATININE [2]: 0.17 mg/dL
- GLUCOSE [2]: 163 mg/dL
- LACTATE DEHYDROGENASE [2]: 69 u/L
- LIPASE [2]: 8.67 u/L
- PHOSPHORUS [2]: 12.37 mg/dL
- POTASSIUM [2]: 6.49 MEQ/L
- SODIUM [2]: 146.83 MEQ/L
- TOTAL BILIRUBIN [2]: 0.2 mg/dL
- TOTAL PROTEIN [2]: 5.5 G/DL
- URIC ACID [2]: 2 mg/dL
- ABSOLUTE BASOPHIL [3]: 0 CELLS/uL
- ABSOLUTE EOSINOPHIL [3]: 0 CELLS/uL
- ABSOLUTE LYMPHOCYTE [3]: 10385.33 CELLS/uL
- ABSOLUTE MONOCYTE [3]: 95.33 CELLS/uL
- ABSOLUTE SEGMENTED NEUTROPHIL [3]: 1152.67 CELLS/uL
- BASOPHIL [3]: 0%
- EOSINOPHIL [3]: 0%
- ERYTHROCYTE COUNT [3]: 5.81 x10E6/uL
- HEMATOCRIT [3]: 35.2%
- HEMOGLOBIN [3]: 13.83 G/DL
- LEUKOCYTE COUNT [3]: 11.63 x10E3/uL
- LYMPHOCYTE [3]: 90.67%
- MEAN CORPUSCULAR HEMOGLOBIN [3]: 23.83 pg
- MEAN CORPUSCULAR HEMOGLOBIN CONCENTRATION [3]: 39.3 G/DL
- MEAN CORPUSCULAR VOLUME [3]: 60.6 fL
- MONOCYTE [3]: 0.67%
- NEUTROPHIL [3]: 8.67%
- NUCLEATED RED BLOOD CELLS [3]: 0.33 /100WBC
- PLATELET COUNT [3]: 1139 x10E3/uL
- ALANINE AMINOTRANSFERASE [3]: 52 u/L
- ALBUMIN [3]: 4.03 G/DL
- ALKALINE PHOSPHATASE [3]: 408.33 u/L
- ASPARTATE AMINOTRANSFERASE [3]: 89.67 u/L
- BLOOD UREA NITROGEN [3]: 18.67 mg/dL
- CARBON DIOXIDE [3]: 25 mmol/L
- CHLORIDE [3]: 102 MEQ/L
- CHOLESTEROL [3]: 60 mg/dL
- CREATINE PHOSPHOKINASE [3]: 576 u/L
- CREATININE [3]: 0.16 mg/dL
- GLUCOSE [3]: 170.33 mg/dL
- LACTATE DEHYDROGENASE [3]: 158.67 u/L
- LIPASE [3]: 8.67 u/L
- PHOSPHORUS [3]: 12.3 mg/dL
- POTASSIUM [3]: 6.27 MEQ/L
- SODIUM [3]: 145.13 MEQ/L
- TOTAL BILIRUBIN [3]: 0.2 mg/dL
- TOTAL PROTEIN [3]: 5.73 G/DL
- URIC ACID [3]: 1.6 mg/dL
